The test system of one experiment is rats. Particulars: systematic administration, reversed by atipamazole or idazoxan; cited from earlier work.
The target in experiment [1] is T1, α2B Human Adrenergic Receptor (Homo sapiens, UniProt P18089).
T1 construct: expressed in transfected cells; host or cells: Y-1 cells
T1 sequence (P18089 1-450): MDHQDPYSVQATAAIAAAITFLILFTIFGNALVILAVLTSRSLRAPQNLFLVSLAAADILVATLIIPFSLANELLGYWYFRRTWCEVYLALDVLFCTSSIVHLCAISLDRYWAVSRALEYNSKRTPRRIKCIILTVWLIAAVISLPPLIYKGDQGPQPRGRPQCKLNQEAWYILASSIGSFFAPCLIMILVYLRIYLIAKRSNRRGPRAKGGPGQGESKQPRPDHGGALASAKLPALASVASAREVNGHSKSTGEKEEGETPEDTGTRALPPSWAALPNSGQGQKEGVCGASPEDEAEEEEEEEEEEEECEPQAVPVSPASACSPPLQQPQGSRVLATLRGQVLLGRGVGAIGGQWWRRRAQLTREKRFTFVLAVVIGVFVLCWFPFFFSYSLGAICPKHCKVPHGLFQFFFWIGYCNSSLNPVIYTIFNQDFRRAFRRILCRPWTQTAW
Description: Equilibrium competition binding, [3H] rauwolscine, membranes of transfected Y-1 cells. Particulars: cloned human receptor; [3H] rauwolscine; read-out: pKi Alpha-2 B (converted).

Experiment [2] addresses α2C Human Adrenergic Receptor (Homo sapiens, UniProt P18825). The experiment in a line: Equilibrium competition binding, [3H] rauwolscine, membranes of transfected LM(tk-) cells.
Experiment [3] addresses T2, α2C Human Adrenergic Receptor (Homo sapiens, UniProt P18825).
T2 sequence (P18825 1-462): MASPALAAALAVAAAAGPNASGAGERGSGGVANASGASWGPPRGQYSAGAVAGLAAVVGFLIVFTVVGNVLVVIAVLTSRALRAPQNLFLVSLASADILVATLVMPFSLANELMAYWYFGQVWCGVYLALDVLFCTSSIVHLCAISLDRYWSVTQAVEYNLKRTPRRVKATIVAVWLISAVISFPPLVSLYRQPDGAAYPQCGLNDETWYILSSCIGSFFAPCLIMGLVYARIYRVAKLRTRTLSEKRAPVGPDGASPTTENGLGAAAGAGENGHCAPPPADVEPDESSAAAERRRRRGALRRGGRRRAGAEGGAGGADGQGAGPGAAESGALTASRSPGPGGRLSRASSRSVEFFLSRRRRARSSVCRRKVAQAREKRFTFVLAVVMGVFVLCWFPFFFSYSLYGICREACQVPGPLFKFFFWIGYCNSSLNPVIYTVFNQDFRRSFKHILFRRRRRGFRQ
In kind it is cell-based. As to conditions: functional cAMP assay. More on the design: The entire coding region of α2C (1383 bp), including 2 bp of 5′ UT and 400 bp of 3′ UT; expressed in transfected cells; host or cells: LM(tk-) cells. On the procedure:
(§1) Binding and functional assays were performed using stably transfected human alpha adrenergic receptors. Equilibrium competition binding assays were performed with membrane preparations from cultured LM(tk-) cells stably transfected with the cloned human adrenoceptor subtypes except for α2b, which was expressed in Y-1 cells, using [^3H] prazosin for α1 receptors and [^3H] rauwolscine for α2 receptors.
The insert housing this coding region was an @ 1.8 kb Ncol/EcoRI human spleen genomic fragment which was end-blunted by either T4 polymerase or Klenow fragment of DNA polymerase. Stable cell lines were selected as described above.
(§2) The agonist activity (expressed as pEC50) was measured as a function of the ability to inhibit the forskolin-stimulated synthesis of cyclic adenosine monophosphate (cAMP). The stably transfected cells were incubated in Ham's F10 with 5 mM theophylline, 10 mM HEPES, 10 μM pargyline, and/or appropriate concentrations of forskolin for 20 min at 37° C. in 5% CO2. The tested compounds were then added to a final concentration of 0.001 nM to 1 μM and incubated for an additional 15 min at 37° C. in 5% CO2. The medium was aspirated and the reaction was stopped by the addition of 100 mM HCl . […] The plates are stored at 4° C. for 15 min and assayed to determine the linear concentration of cAMP. The appropriate dilution is interpolated from the standard curve of cold cAMP. The assessment of cAMP formation is determined by radioimmunoassay (cAMP radioimmunoassay kit; Advanced Magnetics, Cambridge, Mass.). Radioactivity was quantified using a Packard COBRA Auto Gamma counter, equipped with data reduction software.
For orientation: Cyclic AMP is a second messenger, typically raised through Gs and lowered through Gi signalling.

The target in experiment [4] is T1, α2B Human Adrenergic Receptor. In kind it is cell-based. On the procedure: as §1
Stable cell lines were selected as described above.
as §2

As for `Cc1cccc(C(C)c2cnc[nH]2)c1C` (stereo not drawn) [Medetomidine], the antinociception result in the experiment with rats is on record as “dose-dependent antinociception”.

For the molecule `Ic1cc(NC2=NCCN2)cc2[nH]cnc12` [Example 54, 7-Iodo-5-(2-imidazolin-2-ylamino)Benzimidazole], the Ki was 27.5 nM in experiment [1] and 200 nM in experiment [2]. Further, in experiment [3], the “I.A Alpha-2 C” value worked out at 0.90. The “I.A Alpha-2 B” value in experiment [4] (functional cAMP assay) is 0.60. The EC50 in experiment [4] (inhibition of forskolin-stimulated cAMP, NA: Not Active, read-out: pEC50 Alpha-2 B (converted)) was 138 nM.

These data come from US6403626B1, “Benzimidazole derivatives” (Synaptic Pharmaceutical Corporation, priority 1994, dated 2002).
